Laboratory results reported in the supplement of paper PMC10307832.

Tests used:
Test in all cases: relative viability (nuclei count vs DMSO), 5 days (fraction); higher = more cells survive
[1] = compound: C1CN(CCC1C(C2=CC3=C(C=C2)OCO3)(C4=CC5=C(C=C4)OCO5)O)C(=O)OC6=CC=C(C=C6)[N+](=O)[O-] [JZL-184]
How it was run: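 Lung cancer cell lines in 1536-well plates were kept overnight at 37 °C, then pinned with five library-drug doses (not always all listed) spaced by √10 on vehicle-anchored plates. After 5 days without medium change, cells were fixed, permeabilised and Hoechst-stained in one step, imaged at 4×, and nuclei were counted with MetaXpress. Viability is treated-well nuclei divided by vehicle-well nuclei, taken as the median over plates. Plates passed only with control CV below 25% and at least one doubling.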

[2] = compound: C1CN(CCC1C(C2=CC3=C(C=C2)OCO3)(C4=CC5=C(C=C4)OCO5)O)C(=O)OC6=CC=C(C=C6)[N+](=O)[O-] [JZL-184] + CC1(C)CCC(c2ccc(Cl)cc2)=C(CN2CCN(c3ccc(C(=O)NS(=O)(=O)c4ccc(N[C@H](CCN5CCOCC5)CSc5ccccc5)c(S(=O)(=O)C(F)(F)F)c4)cc3)CC2)C1 [Navitoclax] (partner 0.5 µM)
How it was run: (§1)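 Lung cancer cell lines in 1536-well plates were dosed by pin tool the day after seeding, either with one drug alone or with a fixed anchor-drug dose plus five library-drug doses (not always all listed) in √10 steps. After 5 days, cells were fixed and their nuclei stained in one step (final 0.05% Triton X-100, 1% formaldehyde, 1 ug/ml Hoechst), then counted on 4× images. Relative viability is the nuclei count in treated wells divided by that in vehicle wells. Values are medians of duplicate plates.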

[3] = compound: C1CN(CCC1C(C2=CC3=C(C=C2)OCO3)(C4=CC5=C(C=C4)OCO5)O)C(=O)OC6=CC=C(C=C6)[N+](=O)[O-] [JZL-184] + C[C@]1(O)C[C@@H](c2nc(-c3ccc4ccc(-c5ccccc5)nc4c3)c3c(N)nccn32)C1 [Linsitinib] (partner 1 µM)
How it was run: as §1

[4] = compound: C1CN(CCC1C(C2=CC3=C(C=C2)OCO3)(C4=CC5=C(C=C4)OCO5)O)C(=O)OC6=CC=C(C=C6)[N+](=O)[O-] [JZL-184] + CC(C)C[C@H](NC(=O)[C@H](Cc1ccccc1)NC(=O)c1cnccn1)B(O)O [Bortezomib] (partner 0.002 µM)
How it was run: as §1

[5] = compound: C1CN(CCC1C(C2=CC3=C(C=C2)OCO3)(C4=CC5=C(C=C4)OCO5)O)C(=O)OC6=CC=C(C=C6)[N+](=O)[O-] [JZL-184] + C[C@@H](Oc1cc(-c2cnn(C3CCNCC3)c2)cnc1N)c1c(Cl)ccc(F)c1Cl [Crizotinib] (partner 1 µM)
How it was run: as §1

[6] = compound: C1CN(CCC1C(C2=CC3=C(C=C2)OCO3)(C4=CC5=C(C=C4)OCO5)O)C(=O)OC6=CC=C(C=C6)[N+](=O)[O-] [JZL-184] + CS(=O)(=O)N1CCN(Cc2cc3nc(-c4cccc5[nH]ncc45)nc(N4CCOCC4)c3s2)CC1 [Pictilisib] (partner 1 µM)
How it was run: as §1

[7] = compound: C1CN(CCC1C(C2=CC3=C(C=C2)OCO3)(C4=CC5=C(C=C4)OCO5)O)C(=O)OC6=CC=C(C=C6)[N+](=O)[O-] [JZL-184] + CS(=O)(=O)CCNCc1ccc(-c2ccc3ncnc(Nc4ccc(OCc5cccc(F)c5)c(Cl)c4)c3c2)o1 [Lapatinib] (partner 2 µM)
How it was run: as §1

[8] = compound: C1CN(CCC1C(C2=CC3=C(C=C2)OCO3)(C4=CC5=C(C=C4)OCO5)O)C(=O)OC6=CC=C(C=C6)[N+](=O)[O-] [JZL-184] + COc1cc2c(Oc3ccc(NC(=O)C4(C(=O)Nc5ccc(F)cc5)CC4)cc3F)ccnc2cc1OCCCN1CCOCC1 [Foretinib] (partner 0.25 µM)
How it was run: as §1

[9] = compound: C1CN(CCC1C(C2=CC3=C(C=C2)OCO3)(C4=CC5=C(C=C4)OCO5)O)C(=O)OC6=CC=C(C=C6)[N+](=O)[O-] [JZL-184] + O=C(c1cc(Cc2n[nH]c(=O)c3ccccc23)ccc1F)N1CCN(C(=O)C2CC2)CC1 [Olaparib] (partner 8 µM)
How it was run: as §1

[10] = compound: C1CN(CCC1C(C2=CC3=C(C=C2)OCO3)(C4=CC5=C(C=C4)OCO5)O)C(=O)OC6=CC=C(C=C6)[N+](=O)[O-] [JZL-184] + Cc1nc(NC(=O)N2CCC[C@H]2C(N)=O)sc1-c1ccnc(C(C)(C)C(F)(F)F)c1 [Alpelisib] (partner 2 µM)
How it was run: as §1

Cell Line	relative viability ([1]; 0.04 µM)	relative viability ([1]; 0.4 µM)	relative viability ([1]; 1.265 µM)	relative viability ([1]; 4 µM)	relative viability ([2]; first compound 0.04 µM)	relative viability ([2]; first compound 0.4 µM)	relative viability ([2]; first compound 1.265 µM)	relative viability ([2]; first compound 4 µM)	relative viability ([3]; first compound 0.04 µM)	relative viability ([3]; first compound 0.4 µM)	relative viability ([3]; first compound 1.265 µM)	relative viability ([3]; first compound 4 µM)	relative viability ([4]; first compound 0.04 µM)	relative viability ([4]; first compound 0.4 µM)	relative viability ([4]; first compound 1.265 µM)	relative viability ([4]; first compound 4 µM)	relative viability ([5]; first compound 0.04 µM)	relative viability ([5]; first compound 0.4 µM)	relative viability ([5]; first compound 1.265 µM)	relative viability ([5]; first compound 4 µM)	relative viability ([6]; first compound 0.04 µM)	relative viability ([6]; first compound 0.4 µM)	relative viability ([6]; first compound 1.265 µM)	relative viability ([6]; first compound 4 µM)	relative viability ([7]; first compound 0.04 µM)	relative viability ([7]; first compound 0.4 µM)	relative viability ([7]; first compound 1.265 µM)	relative viability ([7]; first compound 4 µM)	relative viability ([8]; first compound 0.04 µM)	relative viability ([8]; first compound 0.4 µM)	relative viability ([8]; first compound 1.265 µM)	relative viability ([8]; first compound 4 µM)	relative viability ([9]; first compound 0.04 µM)	relative viability ([9]; first compound 0.4 µM)	relative viability ([9]; first compound 1.265 µM)	relative viability ([9]; first compound 4 µM)	relative viability ([10]; first compound 0.04 µM)	relative viability ([10]; first compound 0.4 µM)	relative viability ([10]; first compound 1.265 µM)	relative viability ([10]; first compound 4 µM)
Calu-6	1.05	0.981	1.01	0.971	0.845	0.807	0.852	0.798	0.984	0.95	0.985	0.906	1.11	0.925	1	1.06	1.08	0.709	0.776	0.784	0.993	0.865	1	0.91	1.14	1.04	1.02	1.1	0.946	0.83	0.887	0.855	0.565	0.495	0.534	0.623	1.17	0.984	0.98	0.886
EBC-1	1.06	0.992	0.995	1.03	0.442	0.427	0.45	0.342	0.971	0.848	0.929	0.832	0.595	0.514	0.558	0.455	0.21	0.189	0.195	0.193	0.347	0.287	0.506	0.364	0.176	0.239	0.204	0.209	0.101	0.0992	0.0837	0.106	0.655	0.744	0.671	0.666	0.982	0.795	0.802	0.754
